Drawing on ChEMBL document CHEMBL1151789, “Molecular modeling studies toward the structural optimization of new cyclopeptide-based HDAC inhibitors modeled on the natural product FR235222” (Bioorg Med Chem, 2008), this text covers IC50 and Ki for 20 compounds.

The nature of the assay: Inhibition of HDLP.
As a reminder, the IC50 is the concentration that inhibits the measured activity by half. Higher therefore signals lower potency. By Ki is commonly meant the dissociation constant of the complex between target and ligand, obtained from inhibition or displacement. A lower Ki goes with a stronger hold on the target. Turning to `C[C@@H](O)C(=O)CCCCC[C@@H]1NC(=O)[C@H]2CCCN2C(=O)[C@H](Cc2ccccc2)NC(=O)C(C)(C)NC1=O`, the IC50 stood at 30 nM and the affinity, expressed as Ki, was 16.4 nM.
`C[C@H](O)C(=O)CCCCC[C@@H]1NC(=O)[C@@H]2CCCN2C(=O)[C@H](Cc2ccccc2)NC(=O)C(C)(C)NC1=O` showed a Ki of 52.8 nM.
Same read-out and setting: with `C[C@@H](O)C(=O)CCCCC[C@@H]1NC(=O)[C@@H]2CCCN2C(=O)[C@H](Cc2ccccc2)NC(=O)[C@H](Cc2c[nH]c3ccccc23)NC1=O` the figure was 7.77 nM.
Same read-out and setting: with `CC[C@@H]1NC(=O)[C@H](CCCCCC(=O)[C@H](C)O)NC(=O)[C@@H]2CCCN2C(=O)[C@H](Cc2ccccc2)NC1=O` the figure was 53.6 nM; with `CC[C@]1(C)NC(=O)[C@H](CCCCCC(=O)[C@@H](C)O)NC(=O)[C@@H]2CCCN2C(=O)[C@H](Cc2ccccc2)NC1=O`, 12.7 nM; with `C[C@H](O)C(=O)CCCCC[C@@H]1NC(=O)[C@H]2CCCN2C(=O)[C@H](Cc2ccccc2)NC(=O)[C@H](Cc2ccc(Cl)cc2)NC1=O`, 87.1 nM.
On to `C[C@H](O)C(=O)CCCCC[C@@H]1NC(=O)[C@H]2CCCN2C(=O)[C@H](Cc2ccccc2)NC(=O)C2(CCCCC2)NC1=O`, for which half-maximal inhibition (IC50) was put at 670 nM and the affinity corresponds to a Ki of 25.4 nM.
In turn, `CC[C@@H]1NC(=O)[C@H](CCCCCC(=O)[C@H](C)O)NC(=O)[C@H]2CCCN2C(=O)[C@H](Cc2ccccc2)NC1=O` came in with an IC50 of 1000 nM and an inhibition constant Ki of 110 nM.
In the case of `C[C@@H](O)C(=O)CCCCC[C@@H]1NC(=O)[C@@H]2CCCN2C(=O)[C@H](Cc2ccccc2)NC(=O)[C@H](Cc2ccccc2)NC1=O`, the Ki amounted to 82.1 nM. That is a double-digit nanomolar value.
The same measure, in the same setting: with `C[C@H](O)C(=O)CCCCC[C@@H]1NC(=O)[C@@H]2CCCN2C(=O)[C@H](Cc2ccccc2)NC(=O)C2(CCCCC2)NC1=O` the figure was 6.79 nM.
In turn, `CC[C@]1(C)NC(=O)[C@H](CCCCCC(=O)[C@@H](C)O)NC(=O)[C@H]2CC(C)(C)CN2C(=O)[C@H](Cc2ccccc2)NC1=O` showed an IC50 of 90 nM and a Ki of 60.4 nM.
In turn, `C[C@H](O)C(=O)CCCCC[C@@H]1NC(=O)[C@H]2CCCN2C(=O)[C@H](Cc2ccccc2)NC(=O)[C@H](Cc2cnc[nH]2)NC1=O` came in with a 50% inhibitory concentration (IC50) of 350000 nM and an inhibition constant (Ki) of 34.2 nM.
Turning to `C[C@@H](O)C(=O)CCCCC[C@@H]1NC(=O)[C@H]2CCCN2C(=O)[C@H](Cc2ccccc2)NC(=O)[C@H](Cc2ccccc2)NC1=O`, 280 nM corresponded to half-maximal inhibition (IC50) and affinity was put at a Ki of 36.9 nM.
For `C[C@H](O)C(=O)CCCCC[C@@H]1NC(=O)[C@@H]2CCCN2C(=O)[C@H](Cc2ccccc2)NC(=O)[C@H](Cc2ccc(Cl)cc2)NC1=O`, the Ki was found to be 23.4 nM.
As to `C[C@@H](O)C(=O)CCCCC[C@@H]1NC(=O)[C@@H]2CCCN2C(=O)[C@H](Cc2ccccc2)NC(=O)C(C)(C)NC1=O`, the inhibition constant (Ki) came out at 10.6 nM.
Compound `C[C@@H](O)C(=O)CCCCC[C@@H]1NC(=O)[C@H]2CCCN2C(=O)[C@H](Cc2ccccc2)NC(=O)[C@H](Cc2c[nH]c3ccccc23)NC1=O` had a half-maximal inhibitory concentration (IC50) of 20 nM and a Ki of 0.987 nM.
The compound `CC[C@]1(C)NC(=O)[C@H](CCCCCC(=O)[C@@H](C)O)NC(=O)[C@@H]2CC(C)(C)CN2C(=O)[C@H](Cc2ccccc2)NC1=O` displayed a Ki of 45.8 nM.
With `C[C@H](O)C(=O)CCCCC[C@@H]1NC(=O)[C@@H]2CCCN2C(=O)[C@H](Cc2ccccc2)NC(=O)[C@H](Cc2cnc[nH]2)NC1=O`, the Ki was found to be 20 nM. Against the preceding compound, the Ki is about 2.3-fold lower.
`C[C@H](O)C(=O)CCCCC[C@@H]1NC(=O)[C@H]2CCCN2C(=O)[C@H](Cc2ccccc2)NC(=O)C(C)(C)NC1=O`: the IC50 is 330 nM and the affinity, expressed as Ki, was 194 nM.
Take `CC[C@]1(C)NC(=O)[C@H](CCCCCC(=O)[C@@H](C)O)NC(=O)[C@H]2CCCN2C(=O)[C@H](Cc2ccccc2)NC1=O`: half-maximal inhibition (IC50) required 50 nM and the Ki is 18.6 nM.
